In patent publication US20160281050A1, “METHODS FOR TREATING A CULTURE OF HAEMATOCOCCUS PLUVIALIS FOR CONTAMINATION USING SALT AND HYDROGEN PEROXIDE” (HELIAE DEVELOPMENT LLC, priority 2015, published 2016):
Like-named read-outs stand apart in the source and are kept apart here.

Experiments:
[1] = system: chytrids
Text: Culture samples of Haematococcus pluvialis (Strain 2) were collected on the second day of the culture from open raceway bioreactor #2430 operating in conditions: reactor volume of 170,000 L; Daily PAR not measured; pH of 7.3; and paddlewheel speed of 70. The culture samples were distributed into flasks for culturing, consisting of duplicate untreated controls and duplicate treatments. […] Samples were taken from the flask cultures daily to quantify % lysis and % chytrid infection and cell dry weight was quantified every other day for a duration of 11 days.

[2] = system: chytrids; remark: listed apart in the source
Text: Culture samples of Haematococcus pluvialis (Strain 2) were collected on day 5 of the culture from open raceway bioreactor #2420 operating in conditions: reactor volume of 170,000 L; Daily PAR not measured; pH of 7.3; and paddlewheel speed of 70%). Culture samples were distributed into flasks for culturing, consisting of duplicate untreated controls and duplicate treatments. […] Samples were taken from the flask cultures every few days in order to quantify % lysis, % chytrid infection, and cell dry weight for a duration of about 11 days.

[3] = system: chytrids; conditions: for % Chytrids Infection: 0.0105 mL/L every 6 hours
Text: Three 3,000 L open raceway pond bioreactor #'s MP1, MP2, & MP3 with paddlewheel mixing disposed outdoors were inoculated with cultures of green swimmer Haematococcus pluvialis (Strain 2) cells from outdoor reactor #2310 at a dilution ratio of 1 part culture samples to 3 parts reddening media containing 1 ppt salt (NaCl). […] MP2 was not treated with hydrogen peroxide to serve as an untreated control for comparison purposes. […] After hydrogen peroxide treatments began, the percent of the cultures infected with chytrids, percent of carotenoids by UV method, and cell dry weight (g/L) were quantified daily.

[4] = 0.0140 mL/L 1 time per day, day 0
[5] = 0.0140 mL/L 1 time per day, day 3
[6] = 0.0140 mL/L 1 time per day, day 4

hydrogen peroxide [H2O2]
% Chytrid infection ([1]; 0.0140 mL/L 1 time per day for 3 d then every other day, day 8): 0.8 ± 1.2% | % Chytrid infection ([1]; 0.0140 mL/L 1 time per day for 3 d then every other day, day 9): 0.0 ± 0.0% | % Chytrid infection ([1]; 0.0140 mL/L 1 time per day for 3 d then every other day, day 10): 0.0 ± 0.0% | % Chytrid infection [1, 4]: 0.0 ± 0.0% | % Chytrid infection [1, 5]: 0.0 ± 0.0% | % Chytrid infection [1, 6]: 0.0 ± 0.0% | % Chytrid infection ([1]; 0.0140 mL/L 1 time per day, day 6): 0.0 ± 0.0% | % Chytrid infection ([1]; 0.0140 mL/L 1 time per day, day 7): 1.7 ± 2.4% | % Chytrid infection ([1]; 0.0140 mL/L 1 time per day, day 8): 0.8 ± 1.2% | % Chytrid infection ([1]; 0.0140 mL/L 1 time per day, day 9): 0.8 ± 1.2% | % Chytrid infection ([1]; 0.0140 mL/L 1 time per day, day 10): 0.0 ± 0.0% | % Chytrid infection ([1]; 0.0175 mL/L 1 time per day for 2 d then every other, day 0): 0.0 ± 0.0% | % Chytrid infection ([1]; 0.0175 mL/L 1 time per day for 2 d then every other, day 3): 0.0 ± 0.0% | % Chytrid infection ([1]; 0.0175 mL/L 1 time per day for 2 d then every other, day 4): 0.0 ± 0.0% | % Chytrid infection ([1]; 0.0175 mL/L 1 time per day for 2 d then every other, day 5): 0.0 ± 0.0% | % Chytrid infection ([1]; 0.0175 mL/L 1 time per day for 2 d then every other, day 6): 0.8 ± 1.2% | chytrid infection ([1]; all treated flasks): under 10% | % Chytrid infection ([2]; 0.0105 mL/L 3 times per day (discontinued day 5), day 6): 2.5 ± 1.2% | % Chytrid infection ([2]; 0.0105 mL/L 3 times per day (discontinued day 5), day 9): 7.5 ± 3.5% | % Chytrid infection ([2]; 0.0105 mL/L 3 times per day (discontinued day 5), day 11): 100.0 ± 0.0% | % Chytrid infection ([2]; 0.0105 mL/L 3 times per day, day 0): 0.0 ± 0.0% | % Chytrid infection ([2]; 0.0105 mL/L 3 times per day, day 3): 0.8 ± 1.2% | % Chytrid infection ([2]; 0.0105 mL/L 3 times per day, day 4): 2.5 ± 3.5% | % Chytrid infection ([2]; 0.0105 mL/L 3 times per day, day 5): 1.7 ± 0.0% | % Chytrid infection ([2]; 0.0140 mL/L 1 time per day (discontinued day 5), day 6): 2.5 ± 1.2% | % Chytrid infection ([2]; 0.0140 mL/L 1 time per day (discontinued day 5), day 9): 0.0 ± 0.0% | % Chytrid infection ([2]; 0.0140 mL/L 1 time per day (discontinued day 5), day 11): 35.8 ± 29.5% | % Chytrid infection [2, 4]: 0.0 ± 0.0% | % Chytrid infection [2, 5]: 0.0 ± 0.0% | % Chytrid infection [2, 6]: 0.0 ± 0.0% | % Chytrid infection ([2]; 0.0140 mL/L 2 times per day (discontinued day 5), day 6): 5.8 ± 3.5% | % Chytrid infection ([2]; 0.0140 mL/L 2 times per day (discontinued day 5), day 9): 43.3 ± 4.7% | % Chytrid infection ([2]; 0.0140 mL/L 2 times per day (discontinued day 5), day 11): 97.5 ± 3.5% | % Chytrid infection ([2]; 0.0140 mL/L 2 times per day, day 0): 0.0 ± 0.0% | % Chytrid infection ([2]; 0.0140 mL/L 2 times per day, day 3): 2.5 ± 1.2% | % Chytrid infection ([2]; 0.0140 mL/L 2 times per day, day 4): 2.5 ± 3.5% | % Chytrid infection ([2]; 0.0140 mL/L 2 times per day, day 5): 5.0 ± 4.7% | % Chytrid infection ([2]; 0.0140 mL/L 3 times per day (discontinued day 5), day 6): 0.0 ± 0.0% | % Chytrid infection ([2]; 0.0140 mL/L 3 times per day (discontinued day 5), day 9): 0.0 ± 0.0% | % Chytrid infection ([2]; 0.0140 mL/L 3 times per day (discontinued day 5), day 11): 11.7 ± 16.5% | % Chytrid infection ([2]; 0.0140 mL/L 3 times per day, day 0): 0.0 ± 0.0% | % Chytrid infection ([2]; 0.0140 mL/L 3 times per day, day 3): 3.3 ± 4.7% | % Chytrid infection ([2]; 0.0140 mL/L 3 times per day, day 4): 0.0 ± 0.0% | % Chytrid infection ([2]; 0.0140 mL/L 3 times per day, day 5): 0.0 ± 0.0% | % Chytrid infection ([2]; 0.0175 mL/L 1 time per day (discontinued day 5), day 6): 0.0 ± 0.0% | % Chytrid infection ([2]; 0.0175 mL/L 1 time per day (discontinued day 5), day 9): 0.0 ± 0.0% | % Chytrid infection ([2]; 0.0175 mL/L 1 time per day (discontinued day 5), day 11): 34.2 ± 27.1% | % Chytrid infection ([2]; 0.0175 mL/L 1 time per day, day 0): 0.0 ± 0.0% | % Chytrid infection ([2]; 0.0175 mL/L 1 time per day, day 3): 0.8 ± 1.2% | % Chytrid infection ([2]; 0.0175 mL/L 1 time per day, day 4): 1.7 ± 0.0% | % Chytrid infection ([2]; 0.0175 mL/L 1 time per day, day 5): 1.7 ± 0.0% | chytrid infection ([2]; all treated flasks, until 4-6 days after treatment ended): less than 10% | % Chytrids Infection ([3]; MP1, initial infection 20%, day 7): 23.3 ± 5.8% | % Chytrids Infection ([3]; MP1, initial infection 20%, day 8): 20.0 ± 5.0% | % Chytrids Infection ([3]; MP1, initial infection 20%, day 9): 30.0 ± 10.0% | % Chytrids Infection ([3]; MP1, initial infection 20%, day 10): 26.7 ± 2.9% | % Chytrids Infection ([3]; MP1, initial infection 20%, day 11): 61.7 ± 24.7% | % Chytrids Infection ([3]; MP1, initial infection 20%, day 12): 63.3 ± 16.1% | % Chytrids Infection ([3]; MP1, initial infection 20%, day 13): 73.3 ± 7.6% | % Chytrids Infection ([3]; MP1, initial infection 20%, day 14): 76.7 ± 17.6% | % Chytrids Infection ([3]; MP3, initial infection less than 5%, day 7): 1.7 ± 2.9% | % Chytrids Infection ([3]; MP3, initial infection less than 5%, day 8): 0.0 ± 0.0% | % Chytrids Infection ([3]; MP3, initial infection less than 5%, day 9): 1.7 ± 2.9% | % Chytrids Infection ([3]; MP3, initial infection less than 5%, day 10): 0.0 ± 0.0% | % Chytrids Infection ([3]; MP3, initial infection less than 5%, day 11): 0.0 ± 0.0% | % Chytrids Infection ([3]; MP3, initial infection less than 5%, day 12): 0.0 ± 0.0% | % Chytrids Infection ([3]; MP3, initial infection less than 5%, day 13): 3.3 ± 2.9% | % Chytrids Infection ([3]; MP3, initial infection less than 5%, day 14): 0.0 ± 0.0% | chytrids infection level ([3]; MP3 culture, below 5% when the treatments started, 1 ppt salt): below 5%
